Test results taken from patent US9949976B2, “Kinase inhibitor and use thereof” (Sihuan Pharmaceutical Holdings Group Ltd., priority 2013, dated 2018).
Read-outs that look alike come from different tables or passages of the source.

Tests used:
[1] = target: CDK6/D3 (Homo sapiens, UniProt Q00534); assay: In vitro enzyme-inhibiting activity, Caliper Mobility Shift method; format: biochemical; conditions: read-out: CDK enzyme-inhibiting activity IC50 CDK6/D3
Protocol: (§5) Measurement of activity for inhibiting CDK4/6 kinase by Caliper Mobility Shift method.
50 mL stock solution containing 1000 mM HEPES (pH 7.5), and 50 μL stock solution containing 30% Brij-35, were added to 949.95 mL ultra pure water, and the resultant mixture was mixed homogeneously.
(§6) 25 mL stock solution containing 4% Coating Reagent #3 (provided with the 12-sipper chip used in Caliper device), 50 mL stock solution containing 1000 mM HEPES (pH 7.5), 50 mL stock solution containing 0.5 M EDTA, and 0.25 mL stock solution containing 30% Brij-35, were added to 374.75 mL ultra pure water, and the resultant mixture was mixed homogeneously.
18 μL CDK6/D3 enzyme solution, and 14 μL stock solution containing 1M DTT were added to 2768 μL 1-fold CDK6 kinase buffer, and the resultant mixture was mixed homogeneously.
23 μL stock solution containing 100 mM ATP, 75 μL stock solution containing 1M MgCl2, and 75 μL FAM-tagged polypeptide 8, were added to 2827 μL 1-fold CDK6 kinase buffer, and the resultant mixture was mixed homogeneously.
(§7) DMSO solution containing 10 mM test compound was diluted with DMSO to a solution containing 50 μM test compound (which was used as a stock solution).
(§8) 1) 5 μL 5-fold test compound solution and 10 μL 2.5-fold kinase solution were added to the corresponding wells in a 384-well plate, and incubated at room temperature for 10 min.
(§9) 2) To the corresponding wells, 10 μL 2.5-fold polypeptide solution was added to start the enzymatic reaction, and incubation was performed at 28° C. for 5 h.
(§10) To the corresponding wells, 25 μL stop solution was added to stop the reaction.
(§11) The data was read by Caliper device, the inhibition rate was calculated by the following formula, and curve fitting was carried out by GraphPad5.0 software to get IC50 value. Inhibition rate=(maximal value−sample value)/(maximal value−minimal value)×100, wherein, maximal value: positive control without addition of test compound; minimal value: negative control without addition of enzyme.

[2] = target: CDK4/D3 (Homo sapiens, UniProt P11802); assay: as above; format: biochemical; conditions: read-out: CDK enzyme-inhibiting activity IC50 CDK4/D3
Protocol: as §5
1) Preparation of 1-Fold Buffer for CDK4 Kinase 800 μL stock solution containing 1000 mM HEPES (pH 7.5), and 40 μL stock solution containing 10% Triton X-100, were added to 39160 μL ultra pure water, and the resultant mixture was mixed homogeneously.
as §6
7 μL CDK4/D3 enzyme solution, and 9 μL stock solution containing 1M DTT were added to 1784 μL 1-fold CDK4 kinase buffer, and the resultant mixture was mixed homogeneously.
10 μL stock solution containing 100 mM ATP, 45 μL stock solution containing 1M MgCl2, and 45 μL FAM-tagged polypeptide 8, were added to 1700 μL 1-fold CDK4 kinase buffer, and the resultant mixture was mixed homogeneously.
as §7, §8, §9, §10, §11

[3] = test system: MDA-MB-435S human melanoma cell; assay: BrdU cell proliferation assay (Cell Signaling kit); format: cell-based; conditions: 72 h, read-out: In vitro cell-inhibiting activity IC50 MDA-MB-435S
Protocol: (§1) Experimental method: cell proliferation assay was carried out by BrdU method (BrdU cell proliferation assay kit, Cell Signaling Technology Company).
(§2) Preparation of gradient dilution solutions of test compound: the stock solution containing 10 mM test compound was subjected to 4-fold stepwise dilution with DMSO to prepare solutions containing 2.5 mM, 625 μM, 156 μM, 39 μM, 9.8 μM, and 2.5 μM test compound, respectively. 2 μL DMSO-diluted compound was added to 198 μL culture medium containing 10% FBS to prepare […] test compound, wherein the maximum concentration of the test compound was 100 μM, the concentration of DMSO was 1%, and there were 7 concentration gradients.
MDA-MB-435S medium: L-15+10% FBS+0.01 mg/mL insulin
(§3) (1) Cells grown to 80% confluence (in exponential growth phase) were digested with pancreatin, and centrifuged to collect the cells. MDA-MB-435S and U87MG cells were re-suspended in FBS-free culture medium, counted, and seeded to a 96-well plate; MDA-MB-435S cells were seeded at 3000 cells/well/81 μL; U87MG cells were seeded at 4000 cells/well/81 MCF-7 cells were resuspended in culture medium containing 1% FBS, and counted and seeded to a 96-well plate, at 4000 cell/well/82 μL. The plates were placed in a cell incubator at 37° C. […]
(§4) (9) To each well, stop solution (100 μL) was added, and OD value at 450 nm was measured by ELISA instrument […]

[4] = test system: MCF-7 human breast cancer cell; assay: BrdU cell proliferation assay (Cell Signaling kit); format: cell-based; conditions: MCF7, 72 h, read-out: In vitro cell-inhibiting activity IC50 MCF-7
Protocol: as §1, §2
MCF-7 medium: DMEM+10% FBS+0.01 mg/mL insulin
as §3, §4

[5] = test system: U87MG human glioblastoma cell; assay: BrdU cell proliferation assay (Cell Signaling kit); format: cell-based; conditions: U-87 MG, 72 h, read-out: In vitro cell-inhibiting activity IC50 U87MG
Protocol: as §1, §2
U87MG medium: MEM+10% FBS
as §3, §4

[6] = Pharmacokinetics in nude mouse (IV and PO); format: in vivo; conditions: female, BALB/c nude, plasma; for bioavailability: read-out: F (absolute bioavailability)
Protocol: Test animal: female nude mouse (BALB/c); control agent: 3 mice/administration route at each time point, weight: 22-25 g/mouse; Compound 1: 3 mice/administration route at each time point, weight: 22-25 g/mouse; Compound 6-1: 6 mice/administration route/test compound, weight: 18-26 g/mouse.
Control agent/Compound 1, IV administration group: before administration, 0.083, 0.25, 0.5, 1, 2, 4, 6, 8, 24, and 30 h after administration; PO administration group (10 mg/kg): before administration, 0.167, 0.5, 1, 2, 4, 6, 8, 24, and 30 h after administration.
Compound 1, PO administration group (100 mg/kg): 0.167, 0.5, 1, 2, 4, 6, 8, 24, 30, and 48 h after administration.
Compound 6-1, IV administration group (2.5 mg/kg) and PO administration group (10 mg/kg): 0.083, 0.25, 0.5, 1, 2, 4, 6, 8 and 24 h after administration; Compound 6-1, PO administration group (100 mg/kg): 0.083, 0.25, 0.5, 1, 2, 4, 6, 8, 24, 30, 48 h after administration.
Control agent/Compound 1: 300 μL whole blood was collected from intraocular canthus at each time point, and was centrifuged at 8000 r/min for 6 min in a high speed centrifuge to separate the plasma; the plasma was stored in a refrigerator at −80° C. Compound 6-1: 60 μL whole blood was collected from intraocular canthus at each time point, and was placed in an anticoagulation tube containing anticoagulant agent K2EDTA; the blood sample was centrifuged at 8000 r/min for 6 min to obtain a plasma sample.
The plasma samples of control agent and compound 1 were analyzed by precipitation of protein: to 50 μL plasma, 200 μL internal standard (acetonitrile solution containing 500 ng/mL Warfarin) was added; the resultant mixture was vortexed for 3 min at 1500 r/min, and centrifuged for 5 min at 13000 r/min; to 100 μL supernatant, 400 μL water was added; the resultant mixture was mixed homogeneously under vortexing and analyzed by LC-MS/MS.
The plasma sample of compound 6-1 was analyzed by precipitation of protein: to a suitable amount of plasma, a given volume of internal standard solution was added; the resultant mixture was vortexed and centrifuged; the supernatant was diluted by adding a given volume of water; the resultant mixture was mixed homogeneously under vortexing and analyzed by LC-MS/MS.

Sequence of CDK4/D3 (P11802 whole entry): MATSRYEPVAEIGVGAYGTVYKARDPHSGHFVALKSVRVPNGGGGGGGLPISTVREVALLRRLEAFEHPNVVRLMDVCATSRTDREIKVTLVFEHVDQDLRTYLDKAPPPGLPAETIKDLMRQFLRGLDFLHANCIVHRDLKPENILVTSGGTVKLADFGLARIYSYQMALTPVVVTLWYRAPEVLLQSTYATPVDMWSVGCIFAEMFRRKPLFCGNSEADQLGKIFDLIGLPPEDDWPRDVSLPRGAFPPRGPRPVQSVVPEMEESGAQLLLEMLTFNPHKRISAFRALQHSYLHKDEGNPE
Sequence of CDK4/D3 (P30281 whole entry partner): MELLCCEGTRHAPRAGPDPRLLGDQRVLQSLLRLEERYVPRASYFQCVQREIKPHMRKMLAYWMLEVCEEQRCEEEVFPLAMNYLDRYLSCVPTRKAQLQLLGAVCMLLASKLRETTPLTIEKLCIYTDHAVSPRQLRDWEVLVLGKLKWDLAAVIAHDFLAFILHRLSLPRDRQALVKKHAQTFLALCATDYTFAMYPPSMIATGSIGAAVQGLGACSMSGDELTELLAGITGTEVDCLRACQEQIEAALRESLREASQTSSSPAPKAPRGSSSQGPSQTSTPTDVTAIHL
Sequence of CDK6/D3 (Q00534 whole entry): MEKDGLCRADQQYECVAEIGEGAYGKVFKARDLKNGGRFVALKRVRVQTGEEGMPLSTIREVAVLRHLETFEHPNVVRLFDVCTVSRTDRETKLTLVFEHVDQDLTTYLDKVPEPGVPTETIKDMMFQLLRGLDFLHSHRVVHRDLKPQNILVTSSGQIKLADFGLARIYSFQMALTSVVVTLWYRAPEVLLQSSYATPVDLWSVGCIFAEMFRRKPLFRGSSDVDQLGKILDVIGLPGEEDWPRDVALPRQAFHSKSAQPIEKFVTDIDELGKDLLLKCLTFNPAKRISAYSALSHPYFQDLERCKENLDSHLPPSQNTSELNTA
Sequence of CDK6/D3 (P30281 whole entry partner): as the sequence (P30281 whole entry partner) above

Row | IC50 [1] [nM] | IC50 [2] [nM] | IC50 [3] [nM] | IC50 [4] [nM] | IC50 [5] [nM] | AUC(0-t) ([6]; IV, 2.5 mg/kg) [ng·h/mL] | clearance ([6]; IV, 2.5 mg/kg) [mL/min/kg] | Vd ([6]; IV, 2.5 mg/kg, read-out: Vss) [L/kg] | AUC(0-t) ([6]; PO, 10 mg/kg) [ng·h/mL] | Cmax ([6]; PO, 10 mg/kg) [ng/mL] | Tmax ([6]; PO, 10 mg/kg) [h] | bioavailability ([6]; PO, 10 mg/kg) [%] | AUC(0-t) ([6]; PO, 200 mg/kg) [ng·h/mL] | Cmax ([6]; PO, 200 mg/kg) [ng/mL] | Tmax ([6]; PO, 200 mg/kg) [h] | bioavailability ([6]; PO, 200 mg/kg) [%] | SMILES
1 | 31.3 | 3 | – | – | – | – | – | – | – | – | – | – | – | – | – | – | CCN1CC2CCC(C1)N2Cc1cnc(Nc2cc(-c3cc(F)c4nc(C)n(C(C)C)c4c3)c(F)cn2)nc1 [Compound 13, 5-((3-ethyl-3,8-diazabicyclo[3.2.1]octan-8-yl)methyl)-N-(5-fluoro-4-(4-fluoro-1-isopropyl-2-methyl-1H-benzo[d]imidazol-6-yl)pyridin-2-yl)pyrimidin-2-amine]
2 | 23.1 | 2.6 | – | – | – | – | – | – | – | – | – | – | – | – | – | – | CCN1C2CCC1CN(Cc1cnc(Nc3cc(-c4cc(F)c5nc(C)n(C(C)C)c5c4)c(F)cn3)nc1)C2 [Compound 14, 5-((8-ethyl-3,8-diazabicyclo[3.2.1]octan-3-yl)methyl)-N-(5-fluoro-4-(4-fluoro-1-isopropyl-2-methyl-1H-benzo[d]imidazol-6-yl)pyridin-2-yl)pyrimidin-2-amine]
3 | – | – | 70 | 83 | 47 | 985 | 40.2 | 12.5 | 1410 | 300 | 2 | 39.3 | 90900 | 5370 | 2 | 115 | Cc1nc2c(F)cc(-c3cc(Nc4ncc(CN5C[C@H]6CN(C)C[C@H]6C5)cn4)ncc3F)cc2n1C(C)C [Compound 6-1, N-(5-fluoro-4-(4-fluoro-1-isopropyl-2-methyl-1H-benzo[d]imidazol-6-yl)pyridin-2-yl)-5-(((cis)-5-methylhexahydropyrrolo[3,4-c]pyrrol-2(1H)-yl)methyl)pyrimidin-2-amine]
